Legend:
TYK2 JH2 = molecular target: T1, TYK2 JH2 (Homo sapiens, UniProt P29597); experiment: TYK2 JH2 binding assay (KINOMEscan KdELECT competitive binding); details: TYK2 JH2 domain, KINOMEscan KdELECT (Assay A); read-out: Biochemical TYK2_DiscoverX_JH2_BND_Kd
T1 construct: purchased DiscoverX (KINOMEscan KdELECT service); host or cells: E. coli BL21-derived (T7 phage display) or HEK-293
Outline: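 Competition binding, KdELECT format. Kinase (phage-tagged, E. coli BL21-derived host; or HEK-293, DNA-tagged) + ligand-coated streptavidin beads + cpd, 1 h RT, final DMSO 0.9%. Wash, elute 30 min with 0.5 μM non-biotinylated ligand; qPCR readout. Kd: 11-pt, 3-fold series.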

[1] = test system: JAK1/TYK2 pSTAT5 (Tyr694/699) in THP-1 cell line; experiment: IFNa-stimulated JAK1/TYK2 pSTAT5 (Tyr694/699) inhibition cellular assay, AlphaLISA; type: cell-based; details: Homo sapiens; THP-1 cells, IFNa-stimulated, AlphaLISA (Assay B); read-out: Cellular_THP1_IFNa-pSTATS_TYK2
Outline: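 THP-1, 2e4 cells/well, HBSS; cpd 1 h 37 °C (10000–0.04 nM final, 6-fold, 8 pt); IFNa 100 ng/mL added, 30 min; lyse, freeze −80 °C; pSTAT5 AlphaLISA, 615 nm; 4PL IC50, bottom fixed 0, slope −1.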

T1 sequence (P29597 589-875 limits assumed): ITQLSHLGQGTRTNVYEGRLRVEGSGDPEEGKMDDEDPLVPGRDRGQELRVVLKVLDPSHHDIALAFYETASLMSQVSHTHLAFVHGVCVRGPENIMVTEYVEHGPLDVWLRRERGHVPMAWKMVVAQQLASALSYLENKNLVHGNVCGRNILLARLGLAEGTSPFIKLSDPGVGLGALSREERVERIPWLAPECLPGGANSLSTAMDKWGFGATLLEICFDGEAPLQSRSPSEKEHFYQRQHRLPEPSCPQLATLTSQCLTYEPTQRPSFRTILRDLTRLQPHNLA

| SMILES | Kd (TYK2 JH2) [nM] | IC50 [1] [nM] |
| --- | --- | --- |
| CNc1ncc(C#Cc2ccc(OC[C@@H](C)OC)cc2)c2cc(NC(=O)C3CC3)ncc12 [Example 703, (R)—N-(5-((4-(2-methoxypropoxy)phenyl)ethynyl)-8-(methylamino)-2,7-naphthyridin-3-yl)cyclopropanecarboxamide] | ≤ 100 | ≤ 500 |
| CNc1ncc(C#Cc2ccc(OC[C@H](C)OC)cc2)c2cc(NC(=O)C3CC3)ncc12 [Example 704, (S)—N-(5-((4-(2-methoxypropoxy)phenyl)ethynyl)-8-(methylamino)-2,7-naphthyridin-3-yl)cyclopropanecarboxamide] | ≤ 100 | ≤ 500 |
| CNc1ncc(C#Cc2ccc(OC3CN(C(C)=O)C3)cc2)c2cc(NC(=O)C3CC3)ncc12 [Example 705, N-(5-((4-((1-acetylazetidin-3-yl)oxy)phenyl)ethynyl)-8-(methylamino)-2,7-naphthyridin-3-yl)cyclopropanecarboxamide] | ≤ 100 | ≤ 500 |
| CNc1ncc(C#Cc2ccc(OC3(C)COC3)cc2)c2cc(NC(=O)C3CC3)ncc12 [Example 706, N-(8-(methylamino)-5-((4-((3-methyloxetan-3-yl)oxy)phenyl)ethynyl)-2,7-naphthyridin-3-yl)cyclopropanecarboxamide] | ≤ 100 | ≤ 500 |
| CNc1ncc(C#Cc2ccc(OC3COC3)cc2)c2cc(NC(=O)C3CC3)ncc12 [Example 707, N-(8-(methylamino)-5-((4-(oxetan-3-yloxy)phenyl)ethynyl)-2,7-naphthyridin-3-yl)cyclopropanecarboxamide] | ≤ 100 | ≤ 500 |
| CNc1ncc(C#Cc2ccc(N3CCO[C@H](C)C3)cc2)c2cc(NC(=O)C3CC3)ncc12 [Example 708, (R)—N-(8-(methylamino)-5-((4-(2-methylmorpholino)phenyl)ethynyl)-2,7-naphthyridin-3-yl)cyclopropanecarboxamide] | ≤ 100 | ≤ 500 |
| CNc1ncc(C#Cc2ccc(N3CCO[C@@H](C)C3)cc2)c2cc(NC(=O)C3CC3)ncc12 [Example 709, (S)—N-(8-(methylamino)-5-((4-(2-methylmorpholino)phenyl)ethynyl)-2,7-naphthyridin-3-yl)cyclopropanecarboxamide] | ≤ 100 | ≤ 500 |
| CNc1ncc(C#Cc2ccc(OCC(C)(C)C#N)cc2)c2cc(NC(=O)C3CC3)ncc12 [Example 710, N-(5-((4-(2-cyano-2-methylpropoxy)phenyl)ethynyl)-8-(methylamino)-2,7-naphthyridin-3-yl)cyclopropanecarboxamide] | ≤ 100 | ≤ 500 |
| CNc1ncc(C#Cc2ccc(Oc3ncn(C)n3)cc2)c2cc(NC(=O)C3CC3)ncc12 [Example 711, N-(5-((4-((1-methyl-1H-1,2,4-triazol-3-yl)oxy)phenyl)ethynyl)-8-(methylamino)-2,7-naphthyridin-3-yl)cyclopropanecarboxamide] | ≤ 100 | ≤ 500 |
| CNc1ncc(C#Cc2ccc(OCC3CN(C)C3)cc2)c2cc(NC(=O)C3CC3)ncc12 [Example 712, N-(8-(methylamino)-5-((4-((1-methylazetidin-3-yl)methoxy)phenyl)ethynyl)-2,7-naphthyridin-3-yl)cyclopropanecarboxamide] | ≤ 100 | ≤ 500 |
| CNc1ncc(C#Cc2ccc(OC(C)CC3COC3)cc2)c2cc(NC(=O)C3CC3)ncc12 (centres unmarked) [Example 713, N-(8-(methylamino)-5-((4-((1-(oxetan-3-yl)propan-2-yl)oxy)phenyl)ethynyl)-2,7-naphthyridin-3-yl)cyclopropanecarboxamide] | ≤ 100 | ≤ 500 |
| CNc1ncc(C#Cc2ccc(OCC(C)(C)O)cc2)c2cc(NC(=O)C3CC3)ncc12 [Example 714, N-(5-((4-(2-hydroxy-2-methylpropoxy)phenyl)ethynyl)-8-(methylamino)-2,7-naphthyridin-3-yl)cyclopropanecarboxamide] | ≤ 100 | ≤ 500 |
| CNc1ncc(C#Cc2ccc(OC3CN(S(C)(=O)=O)C3)cc2)c2cc(NC(=O)C3CC3)ncc12 [Example 715, N-(8-(methylamino)-5-((4-((1-(methylsulfonyl)azetidin-3-yl)oxy)phenyl)ethynyl)-2,7-naphthyridin-3-yl)cyclopropanecarboxamide] | ≤ 100 | ≤ 500 |
| CNc1ncc(C#Cc2ccc3cc(COC)n(C)c3c2)c2cc(NC(=O)C3CC3)ncc12 [Example 716, N-(5-((2-(methoxymethyl)-1-methyl-1H-indol-6-yl)ethynyl)-8-(methylamino)-2,7-naphthyridin-3-yl)cyclopropanecarboxamide] | ≤ 100 | ≤ 500 |
| CNc1ncc(C#Cc2ccc3oc(COC)cc3c2)c2cc(NC(=O)C3CC3)ncc12 [Example 717, N-(5-((2-(methoxymethyl)benzofuran-5-yl)ethynyl)-8-(methylamino)-2,7-naphthyridin-3-yl)cyclopropanecarboxamide] | ≤ 100 | ≤ 500 |
| CNc1ncc(C#Cc2cc(F)c(OC)cn2)c2cc(NC(=O)C3CC3)ncc12 [Example 718, N-(5-((4-fluoro-5-methoxypyridin-2-yl)ethynyl)-8-(methylamino)-2,7-naphthyridin-3-yl)cyclopropanecarboxamide] | ≤ 100 | ≤ 500 |
| CNc1ncc(C#Cc2ccc3nc(OC)n(C)c3c2)c2cc(NC(=O)C3CC3)ncc12 [Example 719, N-(5-((2-methoxy-1-methyl-1H-benzo[d]imidazol-6-yl)ethynyl)-8-(methylamino)-2,7-naphthyridin-3-yl)cyclopropanecarboxamide] | ≤ 100 | ≤ 500 |
| CNc1ncc(C#Cc2ccc3nc4n(c3c2)CCOC4)c2cc(NC(=O)C3CC3)ncc12 [Example 720, N-(5-((3,4-dihydro-1H-benzo[4,5]imidazo[2,1-c][1,4]oxazin-7-yl)ethynyl)-8-(methylamino)-2,7-naphthyridin-3-yl)cyclopropanecarboxamide] | ≤ 100 | ≤ 500 |
| CNc1ncc(C#Cc2cc3c(F)cccn3n2)c2cc(NC(=O)C3CC3)ncc12 [Example 721, N-(5-((4-fluoropyrazolo[1,5-a]pyridin-2-yl)ethynyl)-8-(methylamino)-2,7-naphthyridin-3-yl)cyclopropanecarboxamide] | ≤ 100 | ≤ 500 |
| [2H]C([2H])([2H])Oc1ccc(C#Cc2cnc(NC)c3cnc(NC(=O)C4CC4)cc23)nc1 [Example 722, N-(5-((5-(methoxy-d3)pyridin-2-yl)ethynyl)-8-(methylamino)-2,7-naphthyridin-3-yl)cyclopropanecarboxamide] | ≤ 100 | ≤ 500 |
| CNc1ncc(C#Cc2ccc3c(cnn3C(F)F)c2)c2cc(NC(=O)C3CC3)ncc12 [Example 723, N-(5-((1-(difluoromethyl)-1H-indazol-5-yl)ethynyl)-8-(methylamino)-2,7-naphthyridin-3-yl)cyclopropanecarboxamide] | ≤ 100 | ≤ 500 |
| CNc1ncc(C#Cc2ccncc2CCO)c2cc(NC(=O)C3CC3)ncc12 [Example 724, N-(5-((3-(2-hydroxyethyl)pyridin-4-yl)ethynyl)-8-(methylamino)-2,7-naphthyridin-3-yl)cyclopropanecarboxamide] | ≤ 100 | ≤ 500 |
| CNc1ncc(C#Cc2ccc3nc(COC)sc3c2)c2cc(NC(=O)C3CC3)ncc12 [Example 725, N-(5-((2-(methoxymethyl)benzo[d]thiazol-6-yl)ethynyl)-8-(methylamino)-2,7-naphthyridin-3-yl)cyclopropanecarboxamide] | ≤ 100 | ≤ 500 |
| CNc1ncc(C#Cc2ccc(N3CCC3)cn2)c2cc(NC(=O)C3CC3)ncc12 [Example 726, N-(5-((5-(azetidin-1-yl)pyridin-2-yl)ethynyl)-8-(methylamino)-2,7-naphthyridin-3-yl)cyclopropanecarboxamide] | ≤ 100 | ≤ 500 |
| CNc1ncc(C#Cc2ccc(N3CCC3COC)cn2)c2cc(NC(=O)C3CC3)ncc12 (centres unmarked) [Example 727, N-(5-((5-(2-(methoxymethyl)azetidin-1-yl)pyridin-2-yl)ethynyl)-8-(methylamino)-2,7-naphthyridin-3-yl)cyclopropanecarboxamide] | ≤ 100 | ≤ 500 |
| CNc1ncc(C#Cc2ccc(CN3CCOCC3)cn2)c2cc(NC(=O)C3CC3)ncc12 [Example 728, N-(8-(methylamino)-5-((5-(morpholinomethyl)pyridin-2-yl)ethynyl)-2,7-naphthyridin-3-yl)cyclopropanecarboxamide] | ≤ 100 | ≤ 500 |
| CNc1ncc(C#Cc2ccc(C(C)(F)F)cn2)c2cc(NC(=O)C3CC3)ncc12 [Example 729, N-(5-((5-(1,1-difluoroethyl)pyridin-2-yl)ethynyl)-8-(methylamino)-2,7-naphthyridin-3-yl)cyclopropanecarboxamide] | ≤ 100 | ≤ 500 |
| CNc1ncc(C#Cc2cc(C#N)c(OC)cn2)c2cc(NC(=O)C3CC3)ncc12 [Example 730, N-(5-((4-cyano-5-methoxypyridin-2-yl)ethynyl)-8-(methylamino)-2,7-naphthyridin-3-yl)cyclopropanecarboxamide] | ≤ 100 | > 500 |

From patent US20240025906A1 (NEURON23, INC., priority 2022, published 2024)
